According to patent publication US20230183243A1, “HETEROARYL DERIVATIVES AND PHARMACEUTICAL COMPOSITION COMPRISING SAME AS ACTIVE INGREDIENT” (VORONOI INC., priority 2019, published 2023):

Columns and labels:
ULK1 = target: T1, ULK1 (Homo sapiens, UniProt O75385); assay: ScanMAX Kinase panel (DiscoverX); type: binding
T1 construct: purchased DiscoverX Corp. ScanMAX Kinase panel
Experimental: (§1) Further, to evaluate the inhibitory activity of the compound according to the present invention against more enzymes, an experiment was performed as follows. Specifically, the enzyme (kinase) selectivity of the compound of Example 64 selected from the Example compounds of the present invention was measured by commissioning DiscoverX Corp., and an experiment was performed using a panel for ScanMAX™ Kinase analysis. In this case, the concentration of a drug treated with the enzyme was set at 1 μM in DMSO, and the percent control (% control) were defined in the same manner as in the following Expression 1.
(§2) (Example compound−Positive control)/(Negative control−Positive control)×100 [Expression 1]
(§3) Wherein the positive control represents a compound having a percent control of 0%, and the negative control represents a compound having a percent control of 100% in DMSO. For the enzyme selectivity of the present invention, the compound was also judged to have activity against the corresponding enzyme when the percent control for each of the enzymes was <35% (i.e., less than 35%).

CAMK2D = target: T2, CAMK2D (Homo sapiens, UniProt Q13557); assay: ScanMAX Kinase panel (DiscoverX); type: binding; settings: read-out: % Cont @ 1 μM
T2 construct: purchased DiscoverX Corp. ScanMAX Kinase panel
Experimental: as §1, §2, §3

CAMKK2 = target: T3, CAMKK2 (Homo sapiens, UniProt Q96RR4); assay: ScanMAX Kinase panel (DiscoverX); type: binding; settings: read-out: % Cont @ 1 μM
T3 construct: purchased DiscoverX Corp. ScanMAX Kinase panel
Experimental: as §1, §2, §3

CSNK1E = target: T4, CSNK1E (Homo sapiens, UniProt P49674); assay: ScanMAX Kinase panel (DiscoverX); type: binding; settings: read-out: % Cont @ 1 μM
T4 construct: purchased DiscoverX Corp. ScanMAX Kinase panel
Experimental: as §1, §2, §3

SBK1 = target: T5, SBK1 (Homo sapiens, UniProt Q52WX2); assay: ScanMAX Kinase panel (DiscoverX); type: binding; settings: read-out: % Cont @ 1 μM
T5 construct: purchased DiscoverX Corp. ScanMAX Kinase panel
Experimental: as §1, §2, §3

SNARK = target: T6, SNARK (Homo sapiens, UniProt Q9H093); assay: ScanMAX Kinase panel (DiscoverX); type: binding
T6 construct: purchased DiscoverX Corp. (ScanMAX Kinase panel, commissioned)
Experimental: as §1, §2, §3

KIT(V559D, V654A) = target: T7, KIT(V559D, V654A) (Homo sapiens, UniProt P10721, V559D/V654A); assay: ScanMAX Kinase panel (DiscoverX); type: binding; settings: read-out: % Cont @ 1 μM
T7 construct: purchased DiscoverX Corp. ScanMAX Kinase panel
Experimental: as §1, §2, §3

PRKCE = target: T8, PRKCE (Homo sapiens, UniProt Q02156); assay: ScanMAX Kinase panel (DiscoverX); type: binding; settings: read-out: % Cont @ 1 μM
T8 construct: purchased DiscoverX Corp. (ScanMAX Kinase panel, commissioned)
Experimental: as §1, §2, §3

MAP3K2 = target: T9, MAP3K2 (Homo sapiens, UniProt Q9Y2U5); assay: ScanMAX Kinase panel (DiscoverX); type: binding; settings: read-out: % Cont @ 1 μM
T9 construct: purchased DiscoverX Corp. ScanMAX Kinase panel
Experimental: as §1, §2, §3

[1] = target: T10, TYK2(JH2domain-pseudokinase) (Homo sapiens, UniProt P29597); assay: ScanMAX Kinase panel (DiscoverX); type: binding
T10 construct: TYK2(JH2domain-; purchased DiscoverX Corp. ScanMAX Kinase panel
Experimental: as §1, §2, §3

PKN2 = target: T11, PKN2 (Homo sapiens, UniProt Q16513); assay: ScanMAX Kinase panel (DiscoverX); type: binding; settings: read-out: % Cont @ 1 μM
T11 construct: purchased DiscoverX Corp. ScanMAX Kinase panel
Experimental: as §1, §2, §3

[2] = target: T12, JAK2(JH1domain-catalytic) (Homo sapiens, UniProt O60674); assay: ScanMAX Kinase panel (DiscoverX); type: binding
T12 construct: JAK2(JH1domain-; purchased DiscoverX Corp. (ScanMAX Kinase panel, commissioned)
Experimental: as §1, §2, §3

CAMKK1 = target: T13, CAMKK1 (Homo sapiens, UniProt Q8N5S9); assay: ScanMAX Kinase panel (DiscoverX); type: binding; settings: read-out: % Cont @ 1 μM
T13 construct: purchased DiscoverX Corp. (ScanMAX Kinase panel, commissioned)
Experimental: as §1, §2, §3

[3] = target: T14, RSK2(Kin.Dom.1-N-terminal) (Homo sapiens, UniProt P51812); assay: ScanMAX Kinase panel (DiscoverX); type: binding; settings: read-out: % Cont @ 1 μM
T14 construct: RSK2(Kin.Dom.1-; purchased DiscoverX Corp. (ScanMAX Kinase panel, commissioned)
Experimental: as §1, §2, §3

[4] = target: T15, RSK4(Kin.Dom.1-N-terminal) (Homo sapiens, UniProt Q9UK32); assay: ScanMAX Kinase panel (DiscoverX); type: binding
T15 construct: RSK4(Kin.Dom.1); purchased DiscoverX Corp. ScanMAX Kinase panel
Experimental: as §1, §2, §3

ULK3 = target: T16, ULK3 (Homo sapiens, UniProt Q6PHR2); assay: ScanMAX Kinase panel (DiscoverX); type: binding
T16 construct: purchased DiscoverX Corp. ScanMAX Kinase panel
Experimental: as §1, §2, §3

TRKB = target: T17, TRKB (Homo sapiens, UniProt Q16620); assay: ScanMAX Kinase panel (DiscoverX); type: binding; settings: read-out: % Cont @ 1 μM
T17 construct: purchased DiscoverX Corp. ScanMAX Kinase panel
Experimental: as §1, §2, §3

AAK1 = target: T18, AAK1 (Homo sapiens, UniProt Q2M2I8); assay: ScanMAX Kinase panel (DiscoverX); type: binding; settings: read-out: % Cont @ 1 μM
T18 construct: purchased DiscoverX Corp. ScanMAX Kinase panel
Experimental: as §1, §2, §3

DU145 = assay: Cell proliferation inhibition, carcinomas other than TNBC; type: cell-based; settings: Homo sapiens, DU-145
Experimental: (§4) To check an ability to inhibit the growth of (MDA-MB-231) cells in two triple-negative breast cancer cell lines, a test was performed, as follows. Cells were seeded in 180 μL of a culture broth at a density of 2,000 to 3,000 cells/well in a white clear bottom 96-well plate (Corning) according to the growth ability of each cell, and then cultured for 24 hours under conditions of 5% CO2 and 37° C. Thereafter, the compound was prepared by diluting a 10 mM stock solution three-fold with 100% DMSO at a total of 12 concentrations so that a peak concentration of the compound was in a range of 10 mM to 0.05 μM, and the diluted compound was then diluted in each cell culture medium so that a final concentration of the compound was in a range of 100 μM to 0.5 nM. 20 μL of a diluted solution diluted with a medium was added to the cell solution in which cells were seeded in the 96-well plate on the previous day so that a final concentration of the diluted solution was in a range of 10 μM to 0.05 nM. Each of the cells was cultured for 5 days. To check cell viability, a mixture provided in a CellTiter-Glo® Luminescent Cell Viability Assay Kit (Promega) was added to each of the cultured cell media, and cultured for another 10 minutes under a condition of 37° C. Then, a degree of luminescence (fluorescence) was measured. A degree of inhibition of the cell growth according to the treatment concentration of each of the compounds was calculated based on the fluorescence of the solvent control cells which were not treated with the compound. In this case, the concentration of each of the compounds inhibiting 50% of the cell growth was determined to be a GI50 (nM) value, and calculated using Prism (Version 7.01; GraphPad) software.
(§5) Next, the activities of the Example compounds against various types of carcinomas other than the TNBC were evaluated in a similar manner as described above. In the following table, the following active value range (GI50 (nM)) was used to evaluate cell proliferation inhibitory activity.

HCT116 = assay: as above; type: cell-based; settings: Homo sapiens, HCT-116
Experimental: as §4, §5

A549 = assay: as above; type: cell-based; settings: Homo sapiens
Experimental: as §4, §5

BxPC3 = assay: as above; type: cell-based; settings: Homo sapiens, BXPC-3
Experimental: as §4, §5

T11 sequence (Q16513 whole entry): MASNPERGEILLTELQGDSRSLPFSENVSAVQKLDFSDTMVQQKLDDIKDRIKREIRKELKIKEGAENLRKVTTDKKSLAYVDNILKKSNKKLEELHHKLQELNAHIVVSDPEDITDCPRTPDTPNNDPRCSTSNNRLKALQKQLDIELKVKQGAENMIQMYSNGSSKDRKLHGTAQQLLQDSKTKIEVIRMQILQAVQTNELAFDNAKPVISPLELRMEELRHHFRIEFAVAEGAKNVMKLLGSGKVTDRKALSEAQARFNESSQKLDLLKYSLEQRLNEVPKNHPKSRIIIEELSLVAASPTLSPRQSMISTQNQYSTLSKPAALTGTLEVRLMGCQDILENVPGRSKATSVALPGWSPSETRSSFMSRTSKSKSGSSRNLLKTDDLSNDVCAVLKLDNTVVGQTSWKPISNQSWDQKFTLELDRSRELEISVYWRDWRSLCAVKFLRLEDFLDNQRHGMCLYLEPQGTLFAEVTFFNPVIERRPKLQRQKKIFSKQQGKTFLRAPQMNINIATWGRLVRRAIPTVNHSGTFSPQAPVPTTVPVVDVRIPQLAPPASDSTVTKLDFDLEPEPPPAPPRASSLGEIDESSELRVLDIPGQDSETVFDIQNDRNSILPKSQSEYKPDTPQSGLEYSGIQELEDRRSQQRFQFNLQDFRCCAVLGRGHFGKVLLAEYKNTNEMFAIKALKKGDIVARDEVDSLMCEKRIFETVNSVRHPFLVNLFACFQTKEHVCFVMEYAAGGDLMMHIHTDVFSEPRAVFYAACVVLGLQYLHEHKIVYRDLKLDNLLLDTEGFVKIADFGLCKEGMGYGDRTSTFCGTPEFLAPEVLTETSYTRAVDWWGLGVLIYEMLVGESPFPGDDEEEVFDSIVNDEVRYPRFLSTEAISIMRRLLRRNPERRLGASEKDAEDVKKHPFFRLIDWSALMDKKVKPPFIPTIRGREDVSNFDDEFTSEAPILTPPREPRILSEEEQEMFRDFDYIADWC
T14 sequence (P51812 68-327 limits assumed): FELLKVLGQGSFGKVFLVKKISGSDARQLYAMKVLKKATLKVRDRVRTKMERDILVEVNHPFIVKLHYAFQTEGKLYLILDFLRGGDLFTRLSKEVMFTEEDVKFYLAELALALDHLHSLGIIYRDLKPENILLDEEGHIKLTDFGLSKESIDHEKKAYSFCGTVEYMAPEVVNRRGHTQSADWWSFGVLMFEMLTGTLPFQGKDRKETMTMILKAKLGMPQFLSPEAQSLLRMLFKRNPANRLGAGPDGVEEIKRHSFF
T6 sequence (Q9H093 whole entry): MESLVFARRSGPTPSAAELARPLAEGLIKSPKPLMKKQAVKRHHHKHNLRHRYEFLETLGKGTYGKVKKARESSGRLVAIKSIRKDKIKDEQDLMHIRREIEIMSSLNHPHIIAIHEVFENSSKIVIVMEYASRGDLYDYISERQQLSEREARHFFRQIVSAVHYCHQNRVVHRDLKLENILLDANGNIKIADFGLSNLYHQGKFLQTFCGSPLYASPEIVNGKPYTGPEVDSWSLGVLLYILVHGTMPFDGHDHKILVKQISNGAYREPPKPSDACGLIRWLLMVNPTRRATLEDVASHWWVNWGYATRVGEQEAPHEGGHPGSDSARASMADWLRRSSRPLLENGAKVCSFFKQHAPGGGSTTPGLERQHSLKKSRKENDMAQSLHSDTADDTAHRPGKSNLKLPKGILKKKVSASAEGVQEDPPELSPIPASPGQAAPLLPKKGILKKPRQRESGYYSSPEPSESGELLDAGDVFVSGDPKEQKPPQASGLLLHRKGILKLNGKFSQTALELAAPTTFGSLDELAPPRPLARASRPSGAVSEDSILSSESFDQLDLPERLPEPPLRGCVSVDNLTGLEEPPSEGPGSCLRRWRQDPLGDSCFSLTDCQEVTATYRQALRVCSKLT
T8 sequence (Q02156 whole entry): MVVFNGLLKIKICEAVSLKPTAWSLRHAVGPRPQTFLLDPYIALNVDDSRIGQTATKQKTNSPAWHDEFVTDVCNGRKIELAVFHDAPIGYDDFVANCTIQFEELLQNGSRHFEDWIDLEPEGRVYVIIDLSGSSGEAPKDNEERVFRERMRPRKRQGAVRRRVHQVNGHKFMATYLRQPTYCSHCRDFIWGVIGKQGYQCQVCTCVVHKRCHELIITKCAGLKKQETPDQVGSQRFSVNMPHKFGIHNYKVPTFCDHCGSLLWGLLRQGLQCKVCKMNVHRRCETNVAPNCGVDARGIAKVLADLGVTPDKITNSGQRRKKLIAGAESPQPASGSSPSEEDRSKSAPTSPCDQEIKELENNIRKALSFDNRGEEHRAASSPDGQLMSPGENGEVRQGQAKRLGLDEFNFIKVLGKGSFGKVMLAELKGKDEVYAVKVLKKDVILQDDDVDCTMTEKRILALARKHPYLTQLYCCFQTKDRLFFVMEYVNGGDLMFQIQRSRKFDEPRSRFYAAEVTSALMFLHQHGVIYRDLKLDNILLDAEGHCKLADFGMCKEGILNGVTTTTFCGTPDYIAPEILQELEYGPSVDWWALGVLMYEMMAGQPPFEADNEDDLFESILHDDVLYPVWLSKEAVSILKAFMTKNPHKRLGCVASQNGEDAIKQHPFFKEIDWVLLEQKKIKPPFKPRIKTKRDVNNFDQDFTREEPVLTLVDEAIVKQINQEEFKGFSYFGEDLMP
T12 sequence (O60674 849-1124 limits assumed): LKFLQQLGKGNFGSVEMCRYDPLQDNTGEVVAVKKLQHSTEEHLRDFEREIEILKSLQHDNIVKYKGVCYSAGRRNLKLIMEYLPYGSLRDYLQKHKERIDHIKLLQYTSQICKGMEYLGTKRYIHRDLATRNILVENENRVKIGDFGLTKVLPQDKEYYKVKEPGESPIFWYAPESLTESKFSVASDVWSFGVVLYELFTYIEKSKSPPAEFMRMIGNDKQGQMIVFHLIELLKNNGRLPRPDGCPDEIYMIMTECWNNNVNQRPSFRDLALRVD
T16 sequence (Q6PHR2 whole entry): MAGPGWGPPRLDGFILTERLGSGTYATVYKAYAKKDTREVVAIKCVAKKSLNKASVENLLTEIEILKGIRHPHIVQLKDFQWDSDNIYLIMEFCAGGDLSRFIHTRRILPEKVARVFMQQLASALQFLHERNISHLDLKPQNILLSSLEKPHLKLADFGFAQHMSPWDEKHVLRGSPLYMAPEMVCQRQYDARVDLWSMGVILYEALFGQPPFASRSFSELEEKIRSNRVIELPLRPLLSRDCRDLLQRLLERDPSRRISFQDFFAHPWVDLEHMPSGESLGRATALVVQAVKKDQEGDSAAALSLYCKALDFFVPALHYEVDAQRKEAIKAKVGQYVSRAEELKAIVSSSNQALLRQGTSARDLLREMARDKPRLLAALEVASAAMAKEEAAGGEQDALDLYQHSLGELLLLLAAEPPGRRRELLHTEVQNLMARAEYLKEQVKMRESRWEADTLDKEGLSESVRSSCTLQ
T18 sequence (Q2M2I8 whole entry): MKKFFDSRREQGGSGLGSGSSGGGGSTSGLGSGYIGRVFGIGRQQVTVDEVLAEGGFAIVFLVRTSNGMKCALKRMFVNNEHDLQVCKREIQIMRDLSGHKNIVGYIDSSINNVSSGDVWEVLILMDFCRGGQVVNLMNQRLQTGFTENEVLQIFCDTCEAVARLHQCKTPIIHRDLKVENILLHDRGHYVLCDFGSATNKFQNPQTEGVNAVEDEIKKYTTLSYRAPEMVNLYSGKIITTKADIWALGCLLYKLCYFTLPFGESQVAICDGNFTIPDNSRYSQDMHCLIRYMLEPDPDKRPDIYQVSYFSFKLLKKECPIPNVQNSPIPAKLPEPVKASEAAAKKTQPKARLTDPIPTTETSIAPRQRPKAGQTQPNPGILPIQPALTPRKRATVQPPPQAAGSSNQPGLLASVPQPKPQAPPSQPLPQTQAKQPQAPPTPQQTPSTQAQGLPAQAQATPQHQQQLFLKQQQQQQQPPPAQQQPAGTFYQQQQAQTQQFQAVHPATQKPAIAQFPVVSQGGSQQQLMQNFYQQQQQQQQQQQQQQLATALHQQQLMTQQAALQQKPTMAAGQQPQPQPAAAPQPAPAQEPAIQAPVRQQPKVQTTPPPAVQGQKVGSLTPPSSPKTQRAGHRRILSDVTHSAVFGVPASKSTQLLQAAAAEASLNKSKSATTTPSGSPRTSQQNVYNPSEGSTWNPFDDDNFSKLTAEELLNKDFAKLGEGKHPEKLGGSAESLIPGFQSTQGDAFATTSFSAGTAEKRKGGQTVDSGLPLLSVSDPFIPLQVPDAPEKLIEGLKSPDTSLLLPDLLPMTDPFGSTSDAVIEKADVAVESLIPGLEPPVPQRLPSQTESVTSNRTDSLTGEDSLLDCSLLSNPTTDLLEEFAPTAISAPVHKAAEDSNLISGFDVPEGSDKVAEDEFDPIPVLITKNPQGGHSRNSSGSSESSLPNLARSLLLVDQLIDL
T13 sequence (Q8N5S9 whole entry): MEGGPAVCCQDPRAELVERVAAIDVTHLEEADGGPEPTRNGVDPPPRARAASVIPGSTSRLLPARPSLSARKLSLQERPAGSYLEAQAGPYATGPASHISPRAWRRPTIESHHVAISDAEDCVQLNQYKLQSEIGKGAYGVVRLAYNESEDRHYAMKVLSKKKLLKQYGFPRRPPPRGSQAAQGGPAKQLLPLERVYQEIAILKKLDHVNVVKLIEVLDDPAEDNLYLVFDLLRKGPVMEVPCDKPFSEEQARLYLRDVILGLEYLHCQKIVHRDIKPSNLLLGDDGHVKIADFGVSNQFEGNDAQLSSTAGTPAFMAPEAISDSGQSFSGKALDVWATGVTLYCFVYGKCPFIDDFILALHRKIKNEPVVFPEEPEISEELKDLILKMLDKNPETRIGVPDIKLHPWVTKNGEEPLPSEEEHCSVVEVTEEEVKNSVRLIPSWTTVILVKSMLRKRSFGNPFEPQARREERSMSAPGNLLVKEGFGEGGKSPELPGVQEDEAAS

## COc1cc(N2CCCC2=O)ccc1Nc1cc(NC2CCCCC2)c2c(C#N)c[nH]c2n1 [Example 64, 4-(cyclohexylamino)-6-((2-methoxy-4-(2-oxopyrrolidin-1-yl)phenyl)amino)-1H-pyrrolo[2,3-b] pyridine-3-carbonitrile]
ULK1
  % Cont @ 1 μM: 3.1%
CAMK2D
  percent of control at 1 µM: 12%
CAMKK2
  remaining binding at 1 µM: 2.2%
CSNK1E
  remaining binding at 1 µM: 24%
SBK1
  remaining binding at 1 µM: 5.7%
SNARK
  % Cont @ 1 μM: 0%
KIT(V559D, V654A)
  remaining binding at 1 µM: 14%
PRKCE
  percent of control binding at 1 µM: 1.4%
MAP3K2
  remaining binding at 1 µM: 13%
[1]
  % Cont @ 1 μM: 7.2%
PKN2
  remaining binding at 1 µM: 28%
[2]
  % Cont @ 1 μM: 0%
CAMKK1
  remaining binding at 1 µM: 1.6%
[3]
  remaining binding at 1 µM: 1.9%
[4]
  % Cont @ 1 μM: 3.7%
ULK3
  % Cont @ 1 μM: 2.6%
TRKB
  remaining binding at 1 µM: 3.9%
AAK1
  remaining binding at 1 µM: 4.4%
DU145
  GI50: < 100 nM
HCT116
  GI50: < 100 nM
A549
  GI50: < 100 nM
BxPC3
  GI50: < 100 nM
